Source: patent US20080254023A1, “Treating Gliosis, Glial Scarring, Inflammation or Inhibition of Axonal Growth in the Nervous System by Modulating Eph Receptor” (THE UNIVERSITY OF QUEENSLAND, priority 2004, published 2008)

B1: IFNγ: Interferon-γ, inflammatory cytokine, inducer of astrocytic gliosis (protein, UniProt P01579 24-161, looked up)
Interferon gamma: QDPYVKEAENLKKYFNAGHSDVADNGTLFLGILKNWKEESDRKIMQSQIVSFYFKLFKNFKDDQSIQKSVETIKEDMNVKFFNSNKKKRDDFEKLTNYSVTDLNVQRKAIHELIQVMAELSPAAKTGKRKRSQMLFRG

Tests used:
Format in all cases: cell-based, mice
Rho = Rho activation in cultured astrocytes (Rhotekin RBD assay)
Experimental: (§1) For biochemical analysis of astrocytes, factors as indicated were added to 80% confluent monolayers in 10 cm plates (Falcon, USA) for the times indicated. EphrinA5-Fc (available from the inventors) was pre-complexed as above.
(§2) Cells were lysed and a sample kept aside for analysis of total protein levels. The remainder of the lysate was used for immunoprecipitation in EphA4 or Rho activation assays. EphA4 activation was determined by immunoprecipitation of phosphorylated proteins using anti-phosphotyrosine (Cell Signaling), followed by Western transfer and detection of activated or total EphA4 using a rabbit anti-EphA4 antibody (kindly provided by Dr. D. Wilkinson, National Institute for Medical Research, London). Rho activation assays were performed using the Rhotekin RBD assay, according to the manufacturer's instructions (Upstate, USA). Total EphA4 and β-actin expression levels were determined in non-lesioned and 7 d post-lesioned spinal cords by Western analysis using rabbit anti-EphA4 antibody as above and mouse anti-β-actin antibody (Sigma). Densitometry was performed on the autoradiographs using NIH Image software to determine relative levels of the EphA4 bands and normalized to β-actin levels.

EphA4 [1] = assay: EphA4 expression in cultured astrocytes (Western analysis); details: 72 hrs, compared with untreated controls
Experimental: as §1, §2

astrocytes = assay: In vitro astrocyte proliferation assay (MTT); details: up to 72 hrs, LIF 1000 U/ml, IFN-γ 100 U/ml; for proliferation of WT astrocytes: wildtype astrocytes
Experimental: The [3-(4,5-dimethylthiazol-2-yl)-2,5-diphenyl]tetrazolium bromide (MTT) assay, which determines mitochondrial activity in living cells, is commonly used as a proliferation assay (Mosmann, J Immunol Methods 65:55-63, 1983). Living cells transform the tetrazolium ring into dark blue formazan crystals, which can be quantified by reading the optical density (O.D.); an increase in O.D. correlates with an increase in cell number over time. Wildtype and EphA4−/− astrocytes were plated on 96 well plates (Falcon) at 3×10^3 cells/well in DMEM supplemented with 10% FCS in the presence or absence of either LIF (1000 U/ml) or IFN-γ (100 U/ml). The MTT assay was performed at 2, 24, 48 and 72 hours after plating. MTT (0.25 mg/ml) was incubated with the cells at each timepoint for 2 hours at 37° C., the cells were then lysed with an equal volume of acidic isopropanol (0.04M HCL in absolute isopropanol) and the O.D. of the formazan product was measured at 550-650 nm.

EphA4 [2] = biological target: T1, EphA4 (Mus musculus, UniProt Q03137); assay: EphA4 phosphorylation in cultured astrocytes (anti-phosphotyrosine immunoprecipitation, Western)
T1 construct: chamber slides (Falcon, USA) containing wildtype or EphA4−/− astrocyte monolayers; endogenous in cells; host or cells: primary purified astrocyte cultures from wildtype mice
T1 sequence (Q03137 20-986): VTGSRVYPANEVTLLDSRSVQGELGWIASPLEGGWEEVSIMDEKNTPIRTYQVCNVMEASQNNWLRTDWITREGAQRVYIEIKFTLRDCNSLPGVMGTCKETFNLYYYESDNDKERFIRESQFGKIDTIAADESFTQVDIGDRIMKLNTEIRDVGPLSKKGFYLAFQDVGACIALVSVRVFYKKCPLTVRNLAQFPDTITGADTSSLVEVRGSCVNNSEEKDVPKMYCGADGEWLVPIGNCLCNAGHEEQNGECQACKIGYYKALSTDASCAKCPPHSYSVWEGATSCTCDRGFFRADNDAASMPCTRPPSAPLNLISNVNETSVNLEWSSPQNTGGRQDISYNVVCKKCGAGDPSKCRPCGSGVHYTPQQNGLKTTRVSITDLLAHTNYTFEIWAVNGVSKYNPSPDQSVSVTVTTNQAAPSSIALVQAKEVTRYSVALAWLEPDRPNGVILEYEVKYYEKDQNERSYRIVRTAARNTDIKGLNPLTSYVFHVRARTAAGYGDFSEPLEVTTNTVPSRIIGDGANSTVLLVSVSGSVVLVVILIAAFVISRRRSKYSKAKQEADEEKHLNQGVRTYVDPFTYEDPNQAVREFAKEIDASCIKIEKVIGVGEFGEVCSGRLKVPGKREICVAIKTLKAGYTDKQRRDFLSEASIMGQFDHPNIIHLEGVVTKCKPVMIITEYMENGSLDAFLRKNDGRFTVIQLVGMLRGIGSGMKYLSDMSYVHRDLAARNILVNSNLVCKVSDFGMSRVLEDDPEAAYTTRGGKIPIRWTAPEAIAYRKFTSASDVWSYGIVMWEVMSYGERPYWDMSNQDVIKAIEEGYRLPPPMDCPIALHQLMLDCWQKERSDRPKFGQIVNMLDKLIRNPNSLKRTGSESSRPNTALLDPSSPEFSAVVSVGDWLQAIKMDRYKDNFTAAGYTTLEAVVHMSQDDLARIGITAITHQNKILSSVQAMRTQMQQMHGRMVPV
Experimental: as §1, §2

Row | Molecule | Rho activation (RhoGTP) in EphA4−/− astrocytes (Rho; EphA4−/− astrocytes in culture) | Rho activation (RhoGTP) in wildtype astrocytes (Rho; wildtype astrocytes in culture) | upregulation of EphA4 expression on astrocytes (EphA4 [1]) | proliferation response of EphA4−/− astrocytes (astrocytes) | proliferation of WT astrocytes (astrocytes) | upregulation of EphA4 phosphorylation (EphA4 [2]) [fold]
1 | IFNγ: Interferon-γ, inflammatory cytokine, inducer of astrocytic gliosis | not | activated Rho | 56% | markedly decreased | increased proliferation | 
2 | LIF: Leukemia inhibitory factor, inflammatory cytokine |  |  | 69% | markedly decreased | increased proliferation | 2
3 | TNFα |  |  | no effect |  |  | 
4 | B1 |  |  |  |  |  | 2
